Marks after values point to notes of the source that are not given here.
Legend:
Type in all cases: cell-based
[1] = tested on: in vivo fertilized mouse eggs; experiment: Completion of meiosis (2PB extrusion) under Ca2+ chelation and cytoskeleton inhibitors
Procedure: (§1) F1 (C57B16×CBA) mouse females were superovulated and oocytes and zygotes recovered as described previously^44. Parthenogenetic activation was performed by incubating eggs for 4 hrs in M2 medium without Ca^2+/Mg^2+ supplemented with 10 mM SrCl2. Germinal vesicle (GV) oocytes were isolated from ovaries to M2 medium supplemented with 150 μg/ml dibutyryl cyclic AMP (dbcAMP). Epididymal sperm was isolated from F1 males and capacitated in 0.5 ml of fertilization medium with 4 mg/ml BSA^45. Embryos were imaged in KSOM medium as described previously^44. In some experiments prior to imaging embryos were pre-incubated for 20 min with 30 μM BAPTA-AM (to chelate Ca^2+), 5 μg/ml nocodazole (to depolimerize microtubules), 2 μg/ml cytochalasin D (to depolimerize F-actin), 10 μM taxol (to stabilize microtubules) or 100 nM jasplakinolide (to stabilize F-actin) and then transferred to pure KSOM (BAPTA-treated embryos) or to KSOM containing the respective drug (rest of the treated embryos). Embryos treated with ML-7 (to inhibit myosin light chain kinase (MLCK) and therefore myosin II activation^46) were pre-incubated with 25 μM ML-7 for 20 mins and then imaged in a dish containing KSOM with 25 μM ML-7 without a mineral oil overlay which would have absorbed ML-7.
(§2) In most experiments zygotes were imaged in a single plane under an inverted confocal microscope (Zeiss LSM 510 Meta) at 37.5° C. and 5% CO2. DIC images were captured every 10 s using a 633 nm HeNe laser. To measure free Ca^2+ ion concentration, embryos were pre-incubated for 20 min in 5 μM FuraRed-AM (Invitrogen) and FuraRed and DIC images were obtained simultaneously with a 488 nm argon laser. In experiments in which correlations between cytoplasmic movements and developmental potential of the embryos were examined zygotes were imaged in a single plane in transmitted light under standard non-confocal microscopes (Zeiss Axiovert or Deltavision) every 10 s for 2.5 hrs. In experiments in which cytoplasmic movements in the cortex and central parts of zygotes were compared embryos were imaged on the Deltavision microscope in 11 planes every 6 μm, every 10 s for 3 hrs. Intensity of FuraRed fluorescence was measured using ImageJ software. Images were analyzed using custom written software in MATLAB (The Mathworks Inc., Natick, Mass., USA) using algorithms adapted from MatPIV v1.6.1^47. The algorithm was based on that used in PIV, a standard analysis technique used extensively in fluid dynamics^21-24 that involves cross-correlating image sub-regions between sequential pairs of images. In the PIV analysis each image was divided into square interrogation regions and the cross-correlation coefficient distribution was calculated within a larger region in the next image in the sequence. The peak of the cross-correlation coefficient distribution gave the most likely location in the second image of the material in the interrogation region in the first image. This was then used to calculate the displacement vector over the time between images (FIG. 1A). As the displacement of the pattern of contrast of an area of pixels is being measured over many pixels it is possible to accurately measure sub-pixel movements with this technique^22, 24, 48.

fertilized mouse eggs [2] = experiment: PIV analysis of cytoplasmic movements (speed-peaks, after-movements, basal speed) in inhibitor-treated zygotes; conditions: for decrease in basal speed: vs control zygotes; for Mean amplitude of after-movements +/- s.d. / Mean amplitude of speed-peaks +/- s.d.: inhibitor-treated zygotes
Procedure: as §1, §2
(§3) DIC images of fertilized eggs were analyzed using custom written software in MATLAB (The Mathworks Inc., Natick, Mass., USA) using algorithms adapted from MatPIV v1.6.150. The algorithm was based on that used in PIV, a standard analysis technique that involves the use of pattern matching techniques based on cross-correlating sub-regions between sequential pairs of images (see Methods in the main text and FIG. 1a). To calculate a displacement for each analysed interrogation region two subsequent PIV iterations were used. First, the displacement was calculated for a larger interrogation area and then it was used as an estimate of where to centre the search area for the next iteration with a smaller interrogation region. […]

mouse zygotes = experiment: Immunostaining of microtubules and actomyosin in treated zygotes
Procedure: To examine a correlation between cytoplasmic movements and developmental potential of the embryos, 10 μl of capacitated sperm suspension was added to eggs surrounded by cumulus cells and then gametes were co-incubated for 2 hrs. In experiments testing specificity of inhibitors or involving live imaging of actin and myosin, prior to fertilization eggs were treated shortly with acidic Tyrode's solution (pH=2.5) to remove zonas, then were mixed with approximately 1 μl of capacitated sperm suspension and incubated together for 30 min. In both cases fertilization was performed in fertilization medium supplemented with 4 mg/ml BSA^45. Embryos at 2-cell stage were transfer to oviducts of recipient F1 females mated with vasectomised males on 0.5 dpc. They were dissected on 6.5 dpc or 19.5 dpc.
Embryos were fixed in 4% PFA and permeabilised as described before^41. Embryos were scanned using an inverted confocal microscope (Zeiss LSM 510 Meta).
In more detail, embryos were fixed in 4% PFA (30 min, RT or 4° C. overnight), permeabilised with 0.2-0.5% Triton-X100 (30 min, RT) and blocked with 3% BSA or 10% FCS. Subsequently, they were stained with following antibodies and dyes: […]

fertilized mouse eggs [3] = experiment: Formation and maintenance of the fertilization cone (FC) in inhibitor-treated zygotes
Procedure: as §1, §2

mouse eggs [4] = experiment: Cytoplasmic movements and Ca2+ transients in eggs parthenogenetically activated with SrCl2
Procedure: as §1
as §2, with “The peak of the cross-correlation coefficient distribution gave the most likely location in the second image of the material in the interrogation region in the first image. This was then used to calculate the displacement vector over the time between images (FIG. 1A).” left out
as §3, with “The algorithm was based on that used in PIV, a standard analysis technique that involves the use of pattern matching techniques based on cross-correlating sub-regions between sequential pairs of images (see Methods in the main text and FIG. 1a).” left out

mouse eggs [5] = experiment: Cytoplasmic movements in eggs injected with heat-inactivated sperm heads (ICSI) and activated with SrCl2; conditions: for Mean amplitude of after-movements +/- s.d. / Mean amplitude of speed-peaks +/- s.d.: ICSI with the inactivated sperm and SrCl2 activation
Procedure: as §1, §2
ICSI was carried out as previously described^49 using Leica micromanipulators and Leica inverted microscope. In some experiments heat-inactivated sperm (30 min in 60° C.) was used instead of freshly isolated sperm. The sperm suspension was mixed with M2 medium containing 10% polyvinylpyrrolidone (PVP, Mr=360 kDa). Sperm were delivered into the oocytes' cytosol using a piezo micropipette-driving unit (IntraCel PMAS-CT150, PrimeTech, Japan).

[6] = treated zygotes, control zygotes 9.0 +/- 1.9
[7] = Stage 1 prolonged, activation with SrCl2

Compound	Zygotes that extruded 2PB (%) [1]	Zygotes that failed to extrude 2PB (%) [1]	effect on speed-peaks (fertilized mouse eggs [2])	Mean basal cytoplasmic speed +/- s.d. (fertilized mouse eggs [2]; [6])	Mean amplitude of after-movements +/- s.d. (fertilized mouse eggs [2]; Stage 1) [nm/s]	Mean amplitude of speed-peaks +/- s.d. (fertilized mouse eggs [2]; Stage 1)	Mean amplitude of after-movements +/- s.d. (fertilized mouse eggs [2]; Stage 2)	Mean amplitude of speed-peaks +/- s.d. (fertilized mouse eggs [2]; Stage 2)	Mean amplitude of after-movements +/- s.d. (fertilized mouse eggs [2]; Stage 3)	Mean amplitude of speed-peaks +/- s.d. (fertilized mouse eggs [2]; Stage 3) [nm/s]	effect on formation and/or maintenance of the FCs (fertilized mouse eggs [3])	other results
CC(=O)OCOC(=O)CN(CC(=O)OCOC(C)=O)c1ccccc1OCCOc1ccccc1N(CC(=O)OCOC(C)=O)CC(=O)OCOC(C)=O [BAPTA, BAPTA-AM]	(66.7) %	(33.3) %	suppressed high amplitude speed-peaks	15.3 +/− 3.3* nm/s								elevation of mean basal cytoplasmic speed (fertilized mouse eggs [2]; more than controls, 21 fertilized eggs): 1.7 fold; effect on cytoskeleton by staining (mouse zygotes): disrupted microtubules
C=C1[C@@H](C)[C@H]2[C@H](Cc3ccccc3)NC(=O)[C@]23[C@H](OC(C)=O)/C=C/[C@@](C)(O)C(=O)[C@@H](C)C/C=C/[C@H]3[C@@H]1O [Cytochalasin D, cytochalasin D]		(100) %	dramatically abolished speed-peaks	3.1 +/− 0.6* nm/s								zygotes in which unfocused, low-amplitude speed-peaks were recorded (fertilized mouse eggs [2]; 2 out of 21 analyzed zygotes): 9.5%; decrease in basal speed (fertilized mouse eggs [2]): ~3 fold; zygotes in which FCs did not form (fertilized mouse eggs [3]; 20/21 zygotes): 95%
C/C1=C\[C@H](C)C[C@H](C)OC(=O)C[C@H](c2ccc(O)cc2)NC(=O)[C@@H](Cc2c(Br)[nH]c3ccccc23)N(C)C(=O)[C@H](C)NC(=O)[C@@H](C)C1 [Jasplakinolide, jasplakinolide]		(100) %	amplitudes were significantly lower than in controls	3.0 +/− 0.4* nm/s	5.2 ± 2.1	20.9 ± 10.1 nm/s	4.2 +/− 1.9^|| nm/s	14.5 +/− 8.3^|| nm/s	3.8 +/− 2.8^|| nm/s	10.8 ± 7.6	still permitted formation and/or maintenance of FCs	decrease in basal speed (fertilized mouse eggs [2]): ~3 fold; effect on cytoskeleton by staining (mouse zygotes): formation of a thicker cortical layer of actin
O=S(=O)(c1cccc2c(I)cccc12)N1CCCNCC1 [ML-7]	(69.2) %	(30.8) %										zygotes in which cytoplasmic speed oscillations were blocked (fertilized mouse eggs [2]; 16/17 zygotes): 94.1%; Mean basal cytoplasmic speed +/- s.d. (fertilized mouse eggs [2]; A - mean basal velocity before M-phase/interphase transition): A. 5.1 +/− 1.3*^,‡ nm/s; Mean basal cytoplasmic speed +/- s.d. (fertilized mouse eggs [2]; B - mean basal velocity after M-phase/interphase transition): B. 8.3 +/− 1.1^†,‡ nm/s; embryos in which FCs were present (fertilized mouse eggs [3]; 10/17 embryos): 58.8%
COC(=O)Nc1nc2ccc(C(=O)c3cccs3)cc2[nH]1 [Nocodazole, nocodazole]	(41.7) %	(58.3) %	neither nocodazole-induced depolymerisation nor taxol-induced stabilisation of microtubules inhibited speed-peaks	11.0 +/− 1.5* nm/s	11.1 ± 3.9	20.6 ± 11.2 nm/s	16.6 +/− 6.8^¶ nm/s	35.2 +/− 19.3^§ nm/s	21.5 +/− 6.7^|| nm/s	10.4 ± 8.5	had no effect upon either formation and/or maintenance of the FCs	
[Cl-].[Cl-].[Sr+2] [SrCl2]												delay of speed peaks with respect to the onset of the Ca2+ transient (mouse eggs [4]): 10 to 30 s; Ca2+ transients accompanied by speed peaks (mouse eggs [4]; 133/444 transients, n=47 eggs): 30%; Ca2+ transients with after-movements present (mouse eggs [4]; 341/444 transients): 76.8%; Mean amplitude of after-movements +/- s.d. (mouse eggs [4]; [7]): 7.7 +/− 2.9^#,** nm/s; Mean amplitude of speed-peaks +/- s.d. (mouse eggs [4]; [7]): 7.4 +/− 4.0^#,||,¶ nm/s; lag of speed-peaks and FC pulsations after peaks of Ca2+ transients (mouse eggs [5]): 10 to 30 s; Ca2+ transients accompanied by speed-peaks (mouse eggs [5]; 48/79 transients, Stage 2, FCs present, n=25): 60.8%; Mean amplitude of after-movements +/- s.d. (mouse eggs [5]; Stage 1): 7.9 ± 3.0 nm/s; Mean amplitude of speed-peaks +/- s.d. (mouse eggs [5]; Stage 1): 8.8 +/− 8.8^|| nm/s; Mean amplitude of after-movements +/- s.d. (mouse eggs [5]; Stage 2): 10.1 +/− 3.5^#,‡‡ nm/s; Mean amplitude of speed-peaks +/- s.d. (mouse eggs [5]; Stage 2): 8.6 +/− 5.4^# nm/s; Mean amplitude of after-movements +/- s.d. (mouse eggs [5]; Stage 3): 13.0 ± 7.0 nm/s; Mean amplitude of speed-peaks +/- s.d. (mouse eggs [5]; Stage 3): 7.1 +/− 4.3^# nm/s
CC(=O)O[C@H]1C(=O)[C@@]2(C)[C@H]([C@H](OC(=O)c3ccccc3)[C@]3(O)C[C@H](OC(=O)[C@H](O)[C@@H](NC(=O)c4ccccc4)c4ccccc4)C(C)=C1C3(C)C)[C@]1(OC(C)=O)CO[C@@H]1C[C@@H]2O [Taxol, taxol]		(100) %	neither nocodazole-induced depolymerisation nor taxol-induced stabilisation of microtubules inhibited speed-peaks	7.7 +/− 1.7^§ nm/s	7.9 ± 4.3	18.0 +/− 5.0^¶ nm/s	11.1 ± 5.3 nm/s	29.9 +/− 21.0^¶ nm/s	14.3 +/− 5.8^¶ nm/s	11.5 ± 6.5	had no effect upon either formation and/or maintenance of the FCs	

From patent US9410939B2, “Methods for predicting mammalian embryo viability” (Cambridge Enterprise Limited, priority 2011, dated 2016)
